Measurements as given in paper PMC12226733, “Evolution of iGluR ligand specificity, polyamine regulation, and ion selectivity inferred from a placozoan epsilon receptor” (Communications Biology, 2025).
Several values for one entry are separate records, joined by “and”; a condition that tells them apart may be missing. Identical values can stand only once. Like-named read-outs stand apart in the source and are kept apart here.

Columns and labels:
GluE1αA S642R = type: cell-based, Trichoplax adhaerens; settings: […]; for normalized conductance (G-V, Figure 5g), Avg: Na vs Na; for I-V current, Na vs Na, Avg of recordings: Figure 5b
GluE1αA D646A = type: cell-based, Trichoplax adhaerens; settings: […]; for normalized conductance (G-V, Figure 5g), Avg: Na vs Na; for I-V current, Na vs Na, Avg of recordings: Figure 5b
GluE1αA S642Q plus D646A = type: cell-based, Trichoplax adhaerens; settings: […]; for normalized conductance (G-V, Figure 5g), Avg: Na vs Na; for I-V current, Na vs Na, Avg of recordings: Figure 5b
GluA2(Q) wt + γ2 = target: T1, GluA2(Q) wt + γ2 (Homo sapiens, UniProt P42262); assay: outside-out patch clamp, block by intracellular spermine, HEK-293T/17 cells; type: biochemical; settings: for Normalized conductance (Gnorm) GluA2 wild type + γ2 / Normalized current (Inorm) GluA2 wild type + γ2: single recordings and AVG;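 for Normalized conductance (Gnorm) GluA2 wild type + γ2: normalized to each receptor's own maximal conductance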
T1 construct: expressed in transfected cells; host or cells: HEK-293T/17
Procedure: Parallel experiments were carried out in human GluA2 homotetramers bearing equivalent Q/R/N and +4 site mutations to compare the regulation of voltage-dependent polyamine block within the broader context of mammalian receptors. Experimental design remained the same, except for using 10 mM glutamate as the agonist used to evoke membrane currents (Fig. 7a, d, g, and j). […] Their properties were accordingly compared to wildtype GluA2(Q) co-expressed with TARP-γ2.
HEK-293T/17 cells (ATCC) were maintained in MEM supplemented with GlutaMAX and 10% fetal bovine serum (FBS) at 37 °C and 5% CO2. […] Transient transfections were carried out 48 h post-plating using the calcium phosphate precipitation method. After 6–8 hours, cells were washed twice with PBS and maintained in fresh medium. Cells transfected with mammalian GluA2 cDNA (plasmid vector described above) were returned to an incubator at 37 °C for 24–48 hours and cells transfected with Epsilon GluE1αA were incubated at 28 °C for 48–72 hours. In cells co-transfected with TARP-γ2, 30 μM NBQX was included in the medium to minimize AMPAR/auxiliary-induced cytotoxicity. All constructs were co-transfected with a plasmid encoding enhanced green fluorescent protein (eGFP) to identify transfected cells. Electrophysiology responses were recorded from outside-out patches excised from transfected cells. Recording pipettes were composed of borosilicate glass (3 to 6 megaohm, King Precision Glass) coated with dental wax to reduce electrical noise. All recordings were performed using Axopatch 200B amplifier (Molecular Devices, LLC). Current records were filtered at 5 or 10 kHz and sampled at 25–50 kHz. Series resistance (3 to 12 megaohms) was compensated by 95%. Recordings were performed at a range of holding potentials from −100 mV to 100 mV to study polyamine block. Data was acquired using pClamp9 software (Molecular Devices, LLC). All experiments were performed at room temperature. All chemicals were purchased from Sigma-Aldrich, unless otherwise indicated. External solution contained (in mM): 150 NaCl, 5 HEPES, 0.1 CaCl2, 0.1 MgCl, and […], pH 7.3–7.4. […] The osmotic pressure of all solutions was adjusted to 295 to 300 mOsm with sucrose. […] Stocks were thawed on the day of the experiment and used to prepared agonist-containing external solutions. Raw data for all electrophysiology experiments are provided in Supplementary Data 3. Current-voltage (I-V) relationships were fit using Origin 7 (OriginLab) using a ninth order polynomial function to estimate the reversal potential (Vrev).
Agonist-evoked membrane conductance (G) was calculated using the following equation: G=I/(V−Vrev)
Conductance-voltage (G-V) relationships were fit using Origin 7 (OriginLab) with the single permeant blocker model as done previously[46]: G=Gmax/1+[Spm]/Kd Where Gmax is the maximal conductance, [Spm] is the internal Spm concentration, and Kd is the dissociation constant.
Kd is defined as: Kd=koff+kperm/kon=sumofexitrates/bindingrate
And redefined as: Kd=g*exp(V/h)+L*exp(V/k) Where h and k are voltage dependencies of g and L, respectively, and at 0 mV: g=koff/konandL=kperm/kon

T1 sequence (P42262 25-883): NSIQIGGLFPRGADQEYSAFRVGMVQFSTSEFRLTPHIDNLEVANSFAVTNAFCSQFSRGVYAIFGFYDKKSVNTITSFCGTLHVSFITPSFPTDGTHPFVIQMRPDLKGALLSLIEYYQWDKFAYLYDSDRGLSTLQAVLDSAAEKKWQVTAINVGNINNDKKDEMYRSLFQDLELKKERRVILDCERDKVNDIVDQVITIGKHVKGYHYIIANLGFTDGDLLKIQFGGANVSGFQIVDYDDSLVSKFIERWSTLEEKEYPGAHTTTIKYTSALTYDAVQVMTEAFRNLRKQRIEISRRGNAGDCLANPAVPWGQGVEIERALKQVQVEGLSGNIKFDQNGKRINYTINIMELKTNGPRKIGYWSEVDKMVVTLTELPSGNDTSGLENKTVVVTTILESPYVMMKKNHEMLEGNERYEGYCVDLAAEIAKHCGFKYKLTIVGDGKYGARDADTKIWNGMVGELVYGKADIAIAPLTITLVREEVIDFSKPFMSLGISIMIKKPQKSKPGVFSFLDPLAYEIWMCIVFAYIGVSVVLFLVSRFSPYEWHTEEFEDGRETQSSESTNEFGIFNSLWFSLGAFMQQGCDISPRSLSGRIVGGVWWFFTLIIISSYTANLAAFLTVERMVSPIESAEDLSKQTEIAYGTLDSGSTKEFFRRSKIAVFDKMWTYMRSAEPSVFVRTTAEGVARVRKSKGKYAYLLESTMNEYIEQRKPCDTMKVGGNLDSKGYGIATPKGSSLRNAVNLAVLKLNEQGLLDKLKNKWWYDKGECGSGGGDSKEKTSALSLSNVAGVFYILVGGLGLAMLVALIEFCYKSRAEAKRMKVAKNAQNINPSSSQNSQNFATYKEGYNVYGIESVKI
T1 sequence (Q9Y698 whole entry partner): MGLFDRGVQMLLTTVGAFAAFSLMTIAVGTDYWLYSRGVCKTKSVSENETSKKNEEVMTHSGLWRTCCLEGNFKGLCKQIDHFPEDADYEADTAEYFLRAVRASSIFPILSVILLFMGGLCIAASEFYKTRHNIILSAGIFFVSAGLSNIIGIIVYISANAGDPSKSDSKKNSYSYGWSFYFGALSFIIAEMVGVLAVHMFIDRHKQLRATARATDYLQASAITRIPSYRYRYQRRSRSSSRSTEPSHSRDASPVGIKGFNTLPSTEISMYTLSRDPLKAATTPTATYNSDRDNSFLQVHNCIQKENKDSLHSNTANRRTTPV

## [Na+] [Na]
GluE1αA S642R; Vm 0.00
  normalized conductance (G-V, Figure 5g), Avg: 0.18
  I-V current, Na vs Na, Avg of recordings: 0.00344
GluE1αA S642R; Vm 20.00
  normalized conductance (G-V, Figure 5g), Avg: 0.18
  I-V current, Na vs Na, Avg of recordings: 0.06
GluE1αA S642R; Vm 40.00
  normalized conductance (G-V, Figure 5g), Avg: 0.22
  I-V current, Na vs Na, Avg of recordings: 0.13
GluE1αA S642R; Vm 60.00
  normalized conductance (G-V, Figure 5g), Avg: 0.29
  I-V current, Na vs Na, Avg of recordings: 0.22
GluE1αA S642R; Vm 80.00
  normalized conductance (G-V, Figure 5g), Avg: 0.33
  I-V current, Na vs Na, Avg of recordings: 0.33
GluE1αA S642R; Vm -20.00
  normalized conductance (G-V, Figure 5g), Avg: 0.24
  I-V current, Na vs Na, Avg of recordings: -0.07
GluE1αA S642R; Vm -40.00
  normalized conductance (G-V, Figure 5g), Avg: 0.36
  I-V current, Na vs Na, Avg of recordings: -0.16
GluE1αA S642R; Vm -60.00
  normalized conductance (G-V, Figure 5g), Avg: 0.62
  I-V current, Na vs Na, Avg of recordings: -0.32
GluE1αA S642R; Vm -80.00
  normalized conductance (G-V, Figure 5g), Avg: 1.00
  I-V current, Na vs Na, Avg of recordings: -0.59
GluE1αA D646A; Vm 0.00
  normalized conductance (G-V, Figure 5g), Avg: 0.81
  I-V current, Na vs Na, Avg of recordings: -0.000461
GluE1αA D646A; Vm 20.00
  normalized conductance (G-V, Figure 5g), Avg: 0.80
  I-V current, Na vs Na, Avg of recordings: 0.18
GluE1αA D646A; Vm 40.00
  normalized conductance (G-V, Figure 5g), Avg: 0.77
  I-V current, Na vs Na, Avg of recordings: 0.36
GluE1αA D646A; Vm 60.00
  normalized conductance (G-V, Figure 5g), Avg: 0.74
  I-V current, Na vs Na, Avg of recordings: 0.53
GluE1αA D646A; Vm 80.00
  normalized conductance (G-V, Figure 5g), Avg: 0.78
  I-V current, Na vs Na, Avg of recordings: 0.69
GluE1αA D646A; Vm -20.00
  normalized conductance (G-V, Figure 5g), Avg: 0.83
  I-V current, Na vs Na, Avg of recordings: -0.18
GluE1αA D646A; Vm -40.00
  normalized conductance (G-V, Figure 5g), Avg: 0.84
  I-V current, Na vs Na, Avg of recordings: -0.37
GluE1αA D646A; Vm -60.00
  normalized conductance (G-V, Figure 5g), Avg: 0.88
  I-V current, Na vs Na, Avg of recordings: -0.56
GluE1αA D646A; Vm -80.00
  normalized conductance (G-V, Figure 5g), Avg: 1.00
  I-V current, Na vs Na, Avg of recordings: -0.76
GluE1αA S642Q plus D646A; Vm 0.00
  normalized conductance (G-V, Figure 5g), Avg: 0.77
  I-V current, Na vs Na, Avg of recordings: -0.02
GluE1αA S642Q plus D646A; Vm 20.00
  normalized conductance (G-V, Figure 5g), Avg: 0.75
  I-V current, Na vs Na, Avg of recordings: 0.15
GluE1αA S642Q plus D646A; Vm 40.00
  normalized conductance (G-V, Figure 5g), Avg: 0.71
  I-V current, Na vs Na, Avg of recordings: 0.31
GluE1αA S642Q plus D646A; Vm 60.00
  normalized conductance (G-V, Figure 5g), Avg: 0.70
  I-V current, Na vs Na, Avg of recordings: 0.47
GluE1αA S642Q plus D646A; Vm 80.00
  normalized conductance (G-V, Figure 5g), Avg: 0.74
  I-V current, Na vs Na, Avg of recordings: 0.63
GluE1αA S642Q plus D646A; Vm -20.00
  normalized conductance (G-V, Figure 5g), Avg: 0.79
  I-V current, Na vs Na, Avg of recordings: -0.18
GluE1αA S642Q plus D646A; Vm -40.00
  normalized conductance (G-V, Figure 5g), Avg: 0.87
  I-V current, Na vs Na, Avg of recordings: -0.37
GluE1αA S642Q plus D646A; Vm -60.00
  normalized conductance (G-V, Figure 5g), Avg: 0.95
  I-V current, Na vs Na, Avg of recordings: -0.57
GluE1αA S642Q plus D646A; Vm -80.00
  normalized conductance (G-V, Figure 5g), Avg: 1.00
  I-V current, Na vs Na, Avg of recordings: -0.76

## NCCCNCCCCNCCCN [spermine]
GluA2(Q) wt + γ2; 0 mV
  Normalized conductance (Gnorm) GluA2 wild type + γ2: 0.51 and 0.59 and 0.49 and 0.67 and 0.55 and 0.56
GluA2(Q) wt + γ2; 10 mV
  Normalized conductance (Gnorm) GluA2 wild type + γ2: 0.45 and 0.34 and 0.59 and 0.41
  Normalized current (Inorm) GluA2 wild type + γ2: 0.0271 and 0.03 and 0.0219 and 0.0374 and 0.0215 and 0.0279
GluA2(Q) wt + γ2; 20 mV
  Normalized conductance (Gnorm) GluA2 wild type + γ2: 0.46 and 0.44 and 0.31 and 0.56 and 0.39 and 0.43
  Normalized current (Inorm) GluA2 wild type + γ2: 0.06 and 0.0741 and 0.05 and 0.09 and 0.07
GluA2(Q) wt + γ2; 30 mV
  Normalized conductance (Gnorm) GluA2 wild type + γ2: 0.53 and 0.56 and 0.39 and 0.59 and 0.50 and 0.51
  Normalized current (Inorm) GluA2 wild type + γ2: 0.12 and 0.15 and 0.10 and 0.13
GluA2(Q) wt + γ2; 40 mV
  Normalized conductance (Gnorm) GluA2 wild type + γ2: 0.62 and 0.71 and 0.51 and 0.66 and 0.63
  Normalized current (Inorm) GluA2 wild type + γ2: 0.20 and 0.26 and 0.18 and 0.23 and 0.22
GluA2(Q) wt + γ2; 50 mV
  Normalized conductance (Gnorm) GluA2 wild type + γ2: 0.72 and 0.83 and 0.63 and 0.75 and 0.82
  Normalized current (Inorm) GluA2 wild type + γ2: 0.30 and 0.38 and 0.28 and 0.34 and 0.37 and 0.33
GluA2(Q) wt + γ2; 60 mV
  Normalized conductance (Gnorm) GluA2 wild type + γ2: 0.78 and 0.91 and 0.73 and 0.84 and 0.90 and 0.83
  Normalized current (Inorm) GluA2 wild type + γ2: 0.39 and 0.50 and 0.46 and 0.45
GluA2(Q) wt + γ2; 70 mV
  Normalized conductance (Gnorm) GluA2 wild type + γ2: 0.82 and 0.96 and 0.81 and 0.89 and 0.95
  Normalized current (Inorm) GluA2 wild type + γ2: 0.49 and 0.62 and 0.51 and 0.57
GluA2(Q) wt + γ2; 80 mV
  Normalized conductance (Gnorm) GluA2 wild type + γ2: 0.83 and 1.04 and 0.88 and 0.91 and 0.99 and 0.93
  Normalized current (Inorm) GluA2 wild type + γ2: 0.57 and 0.78 and 0.64 and 0.67 and 0.75 and 0.68
GluA2(Q) wt + γ2; 90 mV
  Normalized conductance (Gnorm) GluA2 wild type + γ2: 0.86 and 0.93 and 1.02 and 0.94
  Normalized current (Inorm) GluA2 wild type + γ2: 0.68 and 0.77 and 0.73 and 0.87 and 0.76
GluA2(Q) wt + γ2; 100 mV
  Normalized current (Inorm) GluA2 wild type + γ2: 0.71 and 0.89 and 0.76 and 1.01 and 0.84
GluA2(Q) wt + γ2; -10 mV
  Normalized conductance (Gnorm) GluA2 wild type + γ2: 0.69 and 0.62 and 0.75
  Normalized current (Inorm) GluA2 wild type + γ2: -0.0852
GluA2(Q) wt + γ2; -20 mV
  Normalized conductance (Gnorm) GluA2 wild type + γ2: 0.78 and 0.82 and 0.74 and 0.85 and 0.80
GluA2(Q) wt + γ2; -30 mV
  Normalized conductance (Gnorm) GluA2 wild type + γ2: 0.84 and 0.88 and 0.83 and 0.85 and 0.92 and 0.86
GluA2(Q) wt + γ2; -40 mV
  Normalized conductance (Gnorm) GluA2 wild type + γ2: 0.90 and 0.92 and 0.89 and 0.96 and 0.91
GluA2(Q) wt + γ2; -50 mV
  Normalized conductance (Gnorm) GluA2 wild type + γ2: 0.96 and 0.94 and 0.92 and 0.93 and 0.98 and 0.95
GluA2(Q) wt + γ2; -60 mV
  Normalized conductance (Gnorm) GluA2 wild type + γ2: 0.99 and 0.97 and 0.98
GluA2(Q) wt + γ2; -70 mV
  Normalized conductance (Gnorm) GluA2 wild type + γ2: 1.01 and 0.98 and 0.99 and 0.97 and 0.96
GluA2(Q) wt + γ2; -80 mV
  Normalized conductance (Gnorm) GluA2 wild type + γ2: 1.01 and 0.98 and 1.00 and 0.99
GluA2(Q) wt + γ2; -90 mV
  Normalized conductance (Gnorm) GluA2 wild type + γ2: 1.00 and 0.99 and 0.98
GluA2(Q) wt + γ2; -100 mV
  Normalized conductance (Gnorm) GluA2 wild type + γ2: 1.02 and 1.00 and 0.95
  Normalized current (Inorm) GluA2 wild type + γ2: -1.00
GluA2(Q) wt + γ2; GluA2(Q) wt + γ2
  h, voltage dependency of block onset: −16.7 ± 1.9 mV
  k, voltage dependency of block relief: 18.2 ± 3.0 mV
GluA2(Q) wt + γ2; GluA2(Q) wt + γ2, 30 µM internal Spm, 10 mM glutamate, read-out: Kd(0mV)
  Kd: 38.4 ± 11.9 µM
GluA2(Q) wt + γ2; fit of Gnorm vs voltage, GluA2 wild type + γ2, single recordings
  h: -13.23
